# From patent US8097585B2, “Methods of treating inflammation by administration of heme oxygenase-1 and products of heme degradation” (priority 2002, dated 2012)
# How the values were obtained:
# DSS-colitis = DSS-colitis (acute colitis) mouse model: weight loss, DAI, symptoms, crypt score; format: in vivo, C57BL/6 mice
# Text: Animals. Pathogen-free male C57BL/6 mice, 4-6 weeks of age (Taconic; C57BL/6×129 svj strain) were used in this example. Mice were kept for one week at 4 mice/cage and fed normal laboratory chow and drinking water ad libitum prior to the experiments. All mice weighed between 22.5 g and 27.7 g at the beginning of the trial. The animal experimentation protocol was reviewed and approved by the Animal Care and Use Committees of the Beth Israel Deaconess Medical Center.
# Induction of Colitis. Colitis was induced by feeding mice 5% (wt/v) dextran sodium sulfate (DSS) (MW 40,000; ICN Biomedicals Inc., OH), dissolved in distilled water, for a period of 7 days. The resulting condition was termed “DSS-colitis.” Control animals were fed distilled water ad libitum. The mortality rate in the control group and the CO-treated group was 10% (2/20) and 14% (2/14), respectively. These animals were excluded from the statistical analysis. In the other groups, no mortality occurred during 7 days of 5% DSS treatment.
# Experimental Reagents and Treatment Protocol. Cobalt protoporphyrin (CoPPIX), zinc protoporphyrin (ZnPPIX, Porphyrin Products, Logan, Utah) and biliverdin dihydrochloride (ICN Biomedicals Inc., OH) were dissolved in a small amount 0.2 M NaOH, subsequently adjusted to a pH of 7.4 with 1 M HCl, and diluted in 0.9% NaCl. The stock solutions (CoPPIX and ZnPPIX=1 mg/ml, biliverdin=10 mM) were aliquoted and kept at −70° C. until used. Light exposure was limited as much as possible. CoPPIX (5 mg/kg), ZnPPIX (20 mg/kg) and biliverdin (50 μmol/kg) were administered to the mice intraperitoneally (i.p.) 24 hours before induction of DSS-colitis and daily thereafter. Desferoxamine (DFO) was prepared in imidazole buffer (50 mM imidazole, 220 mM NaCl, pH 7.4). DFO was injected subcutaneously (s.c.) twice daily (125 mg/kg) or infused i.p. (130 mg/kg/day; pumping rate 0.5 μl/hour for 8 days) by miniosmotic Alzet™ pumps (Alza Corporation, Palo Alto, Calif.) (Postma et al., Exp. Parasitol. 89(3):323-30 1998). The pumps were installed i.p. 24 hours before induction of colitis. When animals were sacrificed at day 7 of DSS treatment, the pumps were removed and evaluated to determine if DFO application had taken place.
# CO gas was administrated exogenously by putting animals in a CO exposure chamber (Otterbein et al., Nat. Med. 6(4):422-8, 2000). Briefly, CO at a concentration of 1% (10,000 parts per million (ppm)) in compressed air was mixed with balanced air (21% oxygen) in a stainless steel mixing cylinder before entering the exposure chamber. CO concentrations were controlled by varying the flow rates of CO in a mixing cylinder before delivery to the chamber. Because the flow rate is primarily determined by the O2 flow, only the CO flow was changed to deliver the final concentration to the exposure chamber. A CO analyzer (Interscan Corporation, Chatsworth, Calif.) was used to measure CO levels continuously in the chamber. Mice were placed in the chamber 24 hours before the induction of the colitis and were kept in the exposure chamber during the whole period of the experiment (total of 8 days). […] Animals were removed daily from the chamber to assess weight and stool.
# Evaluation of Symptoms of Colitis. All animals were evaluated clinically on a daily basis. The evaluation of each animal included a measurement of weight, hemoccult positivity and examination of stool for the presence of gross blood and stool consistency. The disease activity index (DAI) was calculated by scoring percent weight loss, intestinal bleeding (no blood; occult blood=hemoccult+; gross blood) and stool consistency (normal stool=well-formed pellets; loose stool=pasty and semiformed stools; diarrhea=liquid stool that stuck to the anus) (Table 1).
# The animals were sacrificed, and the whole colon from the colo-cecal junction to the anal verge was removed and gently cleaned of stool. […]
# [1] = system: DBA/2 islets in diabetic B6AF1 recipients; test: Allogeneic islet transplantation, graft survival and tolerance test; format: in vivo, mice
# Description: Animals. Male DBA/2, B6AF1 and DBA/1 mice 6-8 week of age (Jackson) are used in the experiments. Mice were kept for 2 weeks at 4 mice/cage and fed normal laboratory chow before using for the experiment.
# Treatment protocol. Recipients were rendered diabetic using streptozotocin (STZ, 225 mg/kg). Five days after STZ administration, animals with two consecutive blood glucose levels exceeding 350 mg/dl are used as recipients. Islets (500) are transplanted under the kidney capsule of the recipients.
# Reagents. Cobalt protoporphyrin (CoPPIX, Porphyrin Products, Logan, Utah), biliverdin dihydrochloride and bilirubin (ICN Biomedicals Inc., OH) were dissolved in a small amount of 0.2 M NaOH, subsequently adjusted to a pH of 7.4 with 1 M HCl, and diluted in 1×PBS. The stock solutions (CoPPIX=2 mg/ml, biliverdin=3.2 mg/ml, bilirubin=0.5 mg/ml) were aliquoted and kept at −70° C. until used. Light exposure was limited as much as possible.
# Induction of HO-1/Administration of biliverdin/bilirubin. When given to the donor, CoPPIX (20 mg/kg) was given 24 hours before islet isolation to induce HO-1 expression. To verify HO-1 expression in different organs after CoPP treatment, tissue samples are collected 24 hours after treatment and snap frozen in liquid nitrogen. Immunohistological analysis of HO-1 expression is performed using an anti-HO-1 antibody. CoPPIX (20 mg/kg) was administrated to the recipient intraperitoneally (i.p.) on day-1, 1, 3, 5 and 7. Biliverdin (50 μmol/kg) or bilirubin (8.5 μmol/kg) was given intraperitoneally to the donor one hour before islet isolation. For the recipient, biliverdin (50 μmol/kg) or bilirubin ([…]) was administered intraperitoneally either daily or twice per day from day-1 until day 13. No further treatment was given afterwards.
# Measurement of Glucose level. Glucose levels were tested twice weekly after transplantation. Glucose levels of <200 mg/dl were considered normoglycemic. Grafts were considered rejected when two consecutive glucose levels were >300 mg/dl.
# Tolerance test. The first graft was removed from a number of animals that had islets surviving long-term (longer than 100 days) by doing a nephrectomy. Islets syngeneic with the original donor were transplanted under the contralateral kidney capsule without further treatment. If those second transplanted islets also survived longer than 100 days without further treatment, the recipients were considered tolerant.
# [2] = system: DBA/2 cardiac allografts in B6AF1 recipients; test: Heterotopic cardiac allograft transplantation, graft survival; format: in vivo, mice
# Description: Animals. Male DBA/2 (H-2^d), B6AF1 (H-2^k/d,b) and FVB (H-2^q) mice were purchased from Jackson Lab. Inc. (Bar Harbor, Me.). They were maintained in the institutional specific-pathogen free facility, which has an appropriate light cycle with free access to water and chow ad libitum, and used for experiments at age of 6-10 weeks.
# Cardiac transplantation. DBA2/J and B6AF1 mice were used as donor and recipient, respectively. Heterotopic heart transplantation was carried out according to the procedure of Corry and Russell (Corry et al., Transplant Proc. 5(1):733-5, 1973). […] Secondary heart grafting into the neck was performed using a cuff technique as described previously (Matsuura et al., Transplantation 51(4):896-8, 1991). Briefly, the heart graft was harvested from either DBA2/J (donor strain) or FVB (third-party strain) mice. The right jugular vein and the right common carotid artery of recipient were dissected, and a cuff (polyethylene or polyimide) was connected to these vessels. The graft aorta and pulmonary artery were sleeved over the cuff on the recipient's common carotid artery and the jugular vein, respectively, and fixed with a ligature. After transplantation, beating of the graft was monitored by daily palpation, and scored +1 to +4 according to the strength of graft contractions. Graft rejection was defined as cessation of beating, and was confirmed by direct inspection followed by histological examination.
# Donor and recipient mice were treated either with CoPPIX (5 mg/kg/day), ZnPPIX (5 mg/kg/day) or biliverdin (administered once, twice or three times per day at a dose of 50 μmol/kg/dose). All reagents were administered by intraperitoneal (i.p.) injection. Donor animals were treated for 2 days, starting from 2 days before graft harvest (day-2 and day-1). Treatment of recipient mice was initiated one day before transplantation, and continued until 13 days post-transplant (day-1 to day 13). For the experiments using donor splenocyte infusion (DSI) on day-7 (DSI (D-7)), treatments of recipient animals (either with CoPPIX or ZnPPIX) started from day-8 and were terminated on day 6. Recipients received no further treatment. Spleen cells (2×10^7) isolated from DBA/2J mice as described herein were used for DSI treatment. The cells were injected via the penile vein with 200 μl of 0.9% saline solution.
# Statistics. Cardiac graft survival was plotted by the Kaplan-Meier method, and a log-rank test was applied to compare statistical significance. Expression levels of HO-1/α-actin protein are expressed as mean±standard deviation. Other data are expressed as mean±standard error of the mean (mean±SEM). Intergroup statistical analysis was performed by one-way ANOVA, and Fisher's PSLD was used for a post-hoc test. A comparison was considered statistically significant when the p-value was <0.05.
# recipient splenocytes = test: Mixed lymphocyte culture with splenocytes of treated cardiac allograft recipients; format: in vivo, mice; conditions: harvested 5 days after cardiac transplantation, 72 hours culture with DBA/2 splenocytes; compared to controls
# Description: Mixed lymphocyte culture (MLC). Irradiated (25Gy, ^137Cs) DBA/2 splenocytes (5×10^5/well) were co-cultured with responders (5×10^5/well) in a 96 well round bottom plates for 3 days at 37° C., 95% air with 5% CO2. When using cells from cardiac recipients as responders, the co-culture period was 3 days without any further in vitro treatment. ^3H-thymidine (1 μCi/well) was added 16 hours before termination of cell culture, and ^3H-thymidine incorporation was measured.
# Induction of HO-1 expression or biliverdin administration suppresses the T cell mediated alloimmune response in vivo. […] Recipient splenocytes harvested 5 days after cardiac transplantation were used as responder cells in an in vitro culture with DBA/2 splenocytes as feeder cells. Proliferation was measured at 72 hours (FIG. 9).
# HO-1 = test: HO activity assay on spleen and heart of treated mice; format: in vivo, DBA/2J mice; conditions: 5 mg/kg i.p., one day after treatment
# Description: HO activity assay. DBA/2J mice were given either no treatment or CoPPIX or ZnPPIX at a dose of 5 mg/kg, i.p. (n=10 per group). One day after the treatment, the animals were sacrificed, the spleen and the heart were excised, and tissue samples were frozen at −80° C. Frozen tissue samples were homogenized in ice-cold sucrose and Tris-HCl buffer. The microsomal pellet was obtained after centrifugation and re-suspended in MgCl2-potassium phosphate buffer. Sample protein was then incubated with the reaction mixture containing rat liver cytosol, hemin, glucose-6-phosphate, glucose-6-phosphate dehydrogenase and NADPH (Sigma-Aldrich Corporation, St. Louis, Mo.) for 60 minutes at 37° C. The generated bilirubin was measured by reacting with diazotized surfanilic acid to yield azobilirubin using spectrophotometer.
structure (smiles),measurement,setting,value
"CC(=O)N(O)CCCCCNC(=O)CCC(=O)N(O)CCCCCNC(=O)CCC(=O)N(O)CCCCCN [DFO, Desferoxamine]",protective effect on DSS-colitis,"DSS-colitis; intraperitoneal osmotic pumps, 130 mg/kg/d",no protective effect was observed
same,protective effect on DSS-colitis,DSS-colitis; subcutaneous injections of 125 mg/kg twice daily,no protective effect
C=CC1=C(C)/C(=C/c2[nH]c(Cc3[nH]c(/C=C4\NC(=O)C(C)=C4C=C)c(C)c3CCC(=O)O)c(CCC(=O)O)c2C)NC1=O [bilirubin],long-term survival of islets,[1]; 2 dose per day (every twelve hours),100%
same,long-term survival of islets,[1]; single dose per day to donor and recipient,50%
"C=CC1=C(C)c2cc3[n-]c(cc4nc(cc5[n-]c(cc1n2)c(C)c5C=C)C(C)=C4CCC(=O)O)c(CCC(=O)O)c3C.[Zn+2] [ZnPP, zinc protoporphyrin]",graft prolongation effect,"[2]; ZnPPIX plus DSI (D0), compared to control or DSI (D0) alone",no significant graft prolongation effect
same,allografts with long-term survival,[2]; ZnPPIX plus DSI (D-7),0/9
same,graft MST,[2]; ZnPPIX plus DSI (D-7),13 days
same,graft median survival time (MST),"[2]; one dose per day i.p. (ZnPPIX 5 mg/kg; biliverdin 50 μmol/kg), untreated 11.5 days",11 days
same,proliferation of recipient splenocytes,recipient splenocytes,did not
same,effect on natural course of DSS colitis,"DSS-colitis; ZnPPIX 20 mg/kg i.p. daily, compared to untreated animals",no significant changes
same,HO-1 enzymatic activity,HO-1,this was not the case
